Measured values as given in publication PMC11017401, “Novel molecular mechanism driving neuroprotection after soluble epoxide hydrolase inhibition: Insights for Alzheimer's disease therapeutics” (CNS Neuroscience & Therapeutics, 2023).
“Also recorded” adds a separate entry of the source. Marks after values point to notes of the source that are not given here.

How the values were obtained:
[1] = system: Human primary astrocytes; experiment: T/I/C-induced reactive astrocyte conversion (qPCR, western blot); type: cell-based
Method: A total quantity of 1 × 10^6 astrocytes isolated from CD1 mouse brain (ScienCell #M1800) or primary human astrocyte (ScienCell #1800) were seeded onto PLL‐coated 6‐well culture plates in astrocyte medium (ScienCell #1831 or #1801).
Astrocytes cultures were incubated in serum‐free condition for 24 h and pretreated for 30 min with UB‐SCG‐51 or p‐eIF2α signal inhibitor (Sigma, SML0843), followed by recombinant T/I/C: IL‐1α (3 ng/mL, Peprotech, Thermo Fisher), TNF‐α (30 ng/mL, R&D), C1q (400 ng/mL, R&D), or PBS for 24 h.
Microglia or astrocyte proteins were extracted by RIPA buffer (Thermo Fisher Scientific Inc.). Extracted proteins were separated by SDS/PAGE and subsequently transferred to nitrocellulose membranes (Bio‐Rad). Membranes were blocked in 3% BSA for 1 h at RT and incubated with primary antibodies (details in resource and reagent Table) overnight at 4°C, followed by incubation with Highly Cross‐Adsorbed Secondary Antibody, Alexa Fluor Plus 800 or 680 (Life Technologies) for 1 h at RT. Membranes visualized on Odyssey (LI‐COR Biosciences).
Microglia or astrocyte total RNAs were isolated by using a Quick‐RNA kit (Zymo Research, Inc.). The concentration of total RNAs was measured using a UV–Vis spectrophotometer (NanoDrop8000, Thermo Fisher Scientific Inc.) and reverse‐transcribed with a high‐capacity cDNA reverse transcription kit (Applied Biosystems). Gene expression was quantified by Fast SYBR green real‐time PCR on a Quantstudio 5 system (Applied Biosystems). Data were analyzed according to the comparative Ct method. Gapdh was used to normalize the amounts of cDNA within each sample.

[2] = system: PTZ-induced seizures in mice; experiment: Pentylenetetrazol (PTZ) seizure test
Method: Then, a standard acute test involving the administration of pro‐convulsant PTZ was employed.[32], [33] Furthermore, the PTZ assay is considered highly translatable from mice to humans. In the test, PTZ was administered at 85 mg/Kg by the subcutaneous route and the time to onset of first clonic seizure, an average of clonic seizures, tonic seizure latency and lethality were monitored for 30 min.

[3] = 5 mg/Kg by gavage 1 h prior to PTZ 85 mg/Kg s.c.

O=C(COc1ccc(Cl)cc1)NC1CCC(NC(=O)COc2ccc(Cl)cc2)CC1 (centres unmarked) [SML0843]
C3 gene expression levels in co-treatment ([1]; T/I/C-activated astrocytes, SML0843 + UB-SCG-51, T/I/C alone about 10x control): 2 x fold | C3 gene expression in T/I/C-activated astrocytes, single treatment ([1]; human primary astrocytes, T/I/C 24 h): did not modify; also recorded: did not affect | effect of co-treatment with p-eIF2α signal inhibitor (SML0843) on the UB-SCG-51 effect on C3 gene expression ([1]; human primary astrocytes, T/I/C, SML0843 + UB-SCG-51): partially block

CCC(=O)N1CCC(NC(=O)Nc2ccc(OC(F)(F)F)cc2)CC1 [TPPU]
onset of tonic seizures induced by PTZ vs vehicle ([2]; 5 mg/Kg by gavage): delay the onset of tonic seizures | Average clonic seizure (SEM) [2, 3]: 3.67 (0.56)** | Protected from tonic/total (Mortality) [2, 3]: 5/6^**** | Mean time to clonic seizure latency in seconds (SEM) ([2]; 5 mg/Kg by gavage 1 h prior to PTZ 85 mg/Kg s.c., monitored 30 min): 605.33 (144.78) seconds | average seizure score ([2]; 5 mg/Kg by gavage, group comparison): significant reduction
